# Assay results reported in ChEMBL document CHEMBL3217615, “Novel 3,5-bis(arylidiene)-4-piperidone based monocarbonyl analogs of curcumin: anticancer activity evaluation and mode of action study” (2014).
# Assays:
# Assay type in all cases: functional
# [1] = Growth inhibition of human LOXIMVI cells assessed as cell growth at 10^-8 M after 48 hrs by sulforhodamine B assay; conditions: LOX IMVI; for growth at 0.01 µM: read-out: Activity; for TGI: read-out: pTGI (converted)
# [2] = test system: A498; assay: Growth inhibition of human A498 cells assessed as cell growth at 10^-6 M after 48 hrs by sulforhodamine B assay; conditions: A498, 48 h, read-out: Activity
# [3] = test system: MCF7; assay: Growth inhibition of human MCF7 cells assessed as cell growth at 10^-7 M after 48 hrs by sulforhodamine B assay; conditions: MCF7, 48 h, read-out: Activity
# [4] = Growth inhibition of human SF539 cells assessed as cell growth at 10^-8 M after 48 hrs by sulforhodamine B assay; conditions: SF-539, 48 h; for growth at 0.01 µM: read-out: Activity; for TGI: read-out: pTGI (converted)
# [5] = test system: SN12C; assay: Growth inhibition of human SN12C cells assessed as cell growth at 10^-6 M after 48 hrs by sulforhodamine B assay; conditions: read-out: Activity
# [6] = Growth inhibition of human BT549 cells after 48 hrs by sulforhodamine B assay; conditions: BT-549, 48 h
# [7] = test system: MDA-MB-435; assay: Growth inhibition of human MDA-MB-435 cells after 48 hrs by sulforhodamine B assay; conditions: MDA-MB-435, 48 h; for CC50: read-out: LC50 (the source's name)
# [8] = Growth inhibition of human RXF393 cells after 48 hrs by sulforhodamine B assay; conditions: RXF 393, 48 h; for CC50: read-out: LC50 (the source's name)
# [9] = test system: SK-OV-3; assay: Growth inhibition of human SKOV3 cells assessed as cell growth at 10^-8 M after 48 hrs by sulforhodamine B assay; conditions: SK-OV-3, 48 h; for growth at 0.01 µM: read-out: Activity; for TGI: read-out: pTGI (converted)
# [10] = Growth inhibition of human OVCAR4 cells assessed as cell growth at 10^-4 M after 48 hrs by sulforhodamine B assay; conditions: OVCAR-4, 48 h, read-out: Activity
# [11] = test system: HOP-62; assay: Growth inhibition of human HOP62 cells assessed as cell growth at 10^-8 M after 48 hrs by sulforhodamine B assay; conditions: HOP-62, 48 h; for growth at 0.01 µM: read-out: Activity; for TGI: read-out: pTGI (converted)
# [12] = Growth inhibition of human RXF393 cells assessed as cell growth at 10^-8 M after 48 hrs by sulforhodamine B assay; conditions: RXF 393, 48 h; for growth at 0.01 µM: read-out: Activity; for CC50: read-out: pLC50 (the source's name) (converted); for TGI: read-out: pTGI (converted)
# [13] = Growth inhibition of human UO31 cells assessed as cell growth at 10^-4 M after 48 hrs by sulforhodamine B assay; conditions: UO-31, 48 h, read-out: Activity
# [14] = test system: M14; assay: Growth inhibition of human M14 cells assessed as cell growth at 10^-7 M after 48 hrs by sulforhodamine B assay; conditions: M14, 48 h, read-out: Activity
# [15] = test system: KM12; assay: Growth inhibition of human KM12 cells assessed as cell growth at 10^-4 M after 48 hrs by sulforhodamine B assay; conditions: KM12, 48 h, read-out: Activity
# [16] = test system: U-251; assay: Growth inhibition of human U251 cells assessed as cell growth at 10^-5 M after 48 hrs by sulforhodamine B assay; conditions: U-251, 48 h, read-out: Activity
# [17] = test system: HT-29; assay: Growth inhibition of human HT-29 cells assessed as cell growth at 10^-4 M after 48 hrs by sulforhodamine B assay; conditions: HT-29, 48 h, read-out: Activity
# [18] = test system: HCT-116; assay: Growth inhibition of human HCT116 cells assessed as cell growth at 10^-4 M after 48 hrs by sulforhodamine B assay; conditions: HCT-116, 48 h, read-out: Activity
# [19] = Growth inhibition of human HOP92 cells assessed as cell growth at 10^-7 M after 48 hrs by sulforhodamine B assay; conditions: HOP-92, 48 h, read-out: Activity
# [20] = Growth inhibition of human RXF393 cells assessed as cell growth at 10^-4 M after 48 hrs by sulforhodamine B assay; conditions: RXF 393, 48 h, read-out: Activity
# [21] = test system: 786-0; assay: Growth inhibition of human 786-0 cells assessed as cell growth at 10^-8 M after 48 hrs by sulforhodamine B assay; conditions: 786-0, 48 h; for growth at 0.01 µM: read-out: Activity; for TGI: read-out: pTGI (converted)
# [22] = test system: SK-MEL-2; assay: Growth inhibition of human SK-MEL-2 cells assessed as cell growth at 10^-4 M after 48 hrs by sulforhodamine B assay; conditions: SK-MEL-2, 48 h, read-out: Activity
# [23] = Growth inhibition of human RXF393 cells assessed as cell growth at 10^-7 M after 48 hrs by sulforhodamine B assay; conditions: RXF 393, 48 h, read-out: Activity
# [24] = test system: T47D; assay: Growth inhibition of human T47D cells after 48 hrs by sulforhodamine B assay; conditions: for CC50: read-out: LC50 (the source's name)
# [25] = Growth inhibition of human HCT15 cells assessed as cell growth at 10^-8 M after 48 hrs by sulforhodamine B assay; conditions: HCT-15, 48 h; for growth at 0.01 µM: read-out: Activity; for TGI: read-out: pTGI (converted)
# [26] = test system: NCI-H226; assay: Growth inhibition of human NCI-H226 cells assessed as cell growth at 10^-4 M after 48 hrs by sulforhodamine B assay; conditions: NCI-H226, 48 h, read-out: Activity
# [27] = test system: SK-MEL-28; assay: Growth inhibition of human SK-MEL-28 cells assessed as cell growth at 10^-6 M after 48 hrs by sulforhodamine B assay; conditions: SK-MEL-28, 48 h, read-out: Activity
# [28] = test system: Malme-3M; assay: Growth inhibition of human MALME-3M cells assessed as cell growth at 10^-7 M after 48 hrs by sulforhodamine B assay; conditions: read-out: Activity
# [29] = test system: HL-60(TB); assay: Growth inhibition of human HL-60(TB) cells assessed as cell growth at 10^-6 M after 48 hrs by sulforhodamine B assay; conditions: HL-60, 48 h, read-out: Activity
# [30] = test system: SW-620; assay: Growth inhibition of human SW620 cells assessed as cell growth at 10^-7 M after 48 hrs by sulforhodamine B assay; conditions: SW-620, 48 h, read-out: Activity
# [31] = test system: NCI-H23; assay: Growth inhibition of human NCI-H23 cells assessed as cell growth at 10^-6 M after 48 hrs by sulforhodamine B assay; conditions: NCI-H23, 48 h, read-out: Activity
# [32] = Growth inhibition of human OVCAR8 cells assessed as cell growth at 10^-4 M after 48 hrs by sulforhodamine B assay; conditions: OVCAR-8, 48 h, read-out: Activity
# [33] = test system: SK-OV-3; assay: Growth inhibition of human SKOV3 cells after 48 hrs by sulforhodamine B assay; conditions: SK-OV-3, 48 h; for CC50: read-out: LC50 (the source's name)
compound,measurement,setting,value
O=C1/C(=C/c2ccc(Cl)cc2Cl)CN(S(=O)(=O)c2ccccc2)C/C1=C\c1ccc(Cl)cc1Cl,GI50,[1],204 nM
same,growth at 0.01 µM,[1],95%
same,TGI,[1],513 nM
same,growth at 1 µM,[2],48%
same,growth at 0.1 µM,[3],84%
same,GI50,[4],427 nM
same,LC50,[4],> 100000 nM
same,growth at 0.01 µM,[4],98%
same,TGI,[4],2090 nM
same,growth at 1 µM,[5],-15%
same,GI50,[6],987 nM
same,LC50,[6],> 100000 nM
same,TGI,[6],4210 nM
same,GI50,[7],985 nM
same,TGI,[7],3210 nM
same,CC50,[7],> 100000 nM
same,GI50,[8],1060 nM
same,TGI,[8],2420 nM
same,CC50,[8],5540 nM
same,GI50,[9],7940 nM
same,LC50,[9],> 100000 nM
same,growth at 0.01 µM,[9],109%
same,TGI,[9],> 100000 nM
same,growth at 100 µM,[10],15%
same,GI50,[11],389 nM
same,LC50 (concentration killing 50% of cells),[11],> 100000 nM
same,growth at 0.01 µM,[11],103%
same,TGI,[11],> 100000 nM
same,GI50,[12],1070 nM
same,growth at 0.01 µM,[12],78%
same,CC50,[12],5500 nM
same,TGI,[12],2400 nM
same,growth at 100 µM,[13],-60%
same,growth at 0.1 µM,[14],104%
same,growth at 100 µM,[15],-56%
same,growth at 10 µM,[16],-66%
same,growth at 100 µM,[17],-16%
same,growth at 100 µM,[18],-76%
same,growth at 0.1 µM,[19],77%
same,growth at 100 µM,[20],-88%
same,GI50,[21],240 nM
same,LC50,[21],1700 nM
same,growth at 0.01 µM,[21],101%
same,TGI,[21],550 nM
same,growth at 100 µM,[22],6%
same,growth at 0.1 µM,[23],84%
same,GI50,[24],1280 nM
same,TGI,[24],100000 nM
same,CC50,[24],> 100000 nM
same,GI50,[25],245 nM
same,LC50,[25],> 100000 nM
same,growth at 0.01 µM,[25],95%
same,TGI,[25],759 nM
same,growth at 100 µM,[26],-55%
same,growth at 1 µM,[27],93%
same,growth at 0.1 µM,[28],129%
same,growth at 1 µM,[29],36%
same,growth at 0.1 µM,[30],96%
same,growth at 1 µM,[31],18%
same,growth at 100 µM,[32],-14%
same,GI50,[33],7950 nM
same,TGI,[33],> 100000 nM
same,CC50,[33],> 100000 nM
Cc1ccc(S(=O)(=O)N2C/C(=C\c3cc(F)cc(F)c3)C(=O)/C(=C/c3cc(F)cc(F)c3)C2)cc1,GI50,[1],174 nM
same,growth at 0.01 µM,[1],97%
same,CC50,[1]; read-out: pLC50 (the source's name) (converted),661 nM
same,TGI,[1],339 nM
same,growth at 1 µM,[2],91%
same,growth at 0.1 µM,[3],62%
same,GI50,[4],1200 nM
same,LC50,[4],6760 nM
same,growth at 0.01 µM,[4],94%
same,TGI,[4],2880 nM
same,growth at 1 µM,[5],11%
same,GI50,[6],340 nM
same,LC50,[6],3520 nM
same,TGI,[6],931 nM
same,GI50,[7],241 nM
same,TGI,[7],685 nM
same,CC50,[7],3630 nM
same,GI50,[8],723 nM
same,TGI,[8],2140 nM
same,CC50,[8],5130 nM
same,GI50,[9],1820 nM
same,LC50,[9],37200 nM
same,growth at 0.01 µM,[9],103%
same,TGI,[9],5620 nM
same,growth at 100 µM,[10],-81%
same,GI50,[11],2040 nM
same,LC50 (concentration killing 50% of cells),[11],11700 nM
same,growth at 0.01 µM,[11],98%
same,TGI,[11],4680 nM
same,GI50,[12],724 nM
same,growth at 0.01 µM,[12],96%
same,CC50,[12],5130 nM
same,TGI,[12],2140 nM
same,growth at 100 µM,[13],-95%
same,growth at 0.1 µM,[14],98%
same,growth at 100 µM,[15],-88%
same,growth at 10 µM,[16],-97.9%
same,growth at 100 µM,[17],-75%
same,growth at 100 µM,[18],-92%
same,growth at 0.1 µM,[19],69%
same,growth at 100 µM,[20],-95%
same,GI50,[21],589 nM
same,LC50,[21],4900 nM
same,growth at 0.01 µM,[21],104%
same,TGI,[21],1910 nM
same,growth at 100 µM,[22],-77%
same,growth at 0.1 µM,[23],88%
same,GI50,[24],1790 nM
same,TGI,[24],6090 nM
same,CC50,[24],54300 nM
same,GI50,[25],251 nM
same,LC50,[25],30900 nM
same,growth at 0.01 µM,[25],91%
same,TGI,[25],1290 nM
same,growth at 100 µM,[26],-32%
same,growth at 1 µM,[27],29%
same,growth at 0.1 µM,[28],101%
same,growth at 1 µM,[29],4%
same,growth at 0.1 µM,[30],42%
same,growth at 1 µM,[31],77%
same,growth at 100 µM,[32],-71%
same,GI50,[33],1840 nM
same,TGI,[33],5620 nM
same,CC50,[33],37200 nM
